Reference: ChEMBL document CHEMBL1201862, “PubChem BioAssay data set” (2004)
Active and inactive are the calls of the source.

Experiments:
[1] = THP-1 cell cytotoxicity, cytotoxicity control, set 4 (AID 504911); assay type: functional; conditions: Mycobacterium tuberculosis
[2] = THP-1 cell cytotoxicity, dose response, cytotoxicity control, set 3 (AID 504852); assay type: functional; conditions: Mycobacterium tuberculosis
[3] = Vero cell cytotoxicity, cytotoxicity control for M. tuberculosis inhibitor project, purified and synthesized samples, set 3 (AID 504684); assay type: functional
Candida albicans [4] = test: growth inhibition of resistant C. albicans, dose response, CaCi-8 strain, fluconazole, dry powder, set 4 (AID 488950); assay type: functional, organism-based
Candida albicans [5] = test: growth inhibition of resistant C. albicans, dose response, CaCi-8, fluconazole, Alamar Blue, dry powder (AID 488807); assay type: functional, organism-based
NIH3T3 = test: cytotoxicity in NIH-3T3 fibroblasts, dose response, cytotoxicity control for antifungal drug resistance project, cell-based, Alamar Blue, fluconazole, dry powder (AID 488809); assay type: functional; conditions: Mus musculus
Candida albicans [6] = test: fluconazole resistance reversal in C. albicans, dose response, CaCi-2 strain, Alamar Blue, dry powder, set 4 (AID 488943); assay type: functional, organism-based
Candida albicans [7] = test: single-agent growth inhibition of C. albicans, dose response, counter-screen for antifungal drug resistance project, C. albicans CaCi-2, dry powder (AID 488802); assay type: functional, organism-based
[8] = tested on: Streptococcus sp. 'group A'; test: growth inhibition of control SK(-) GAS strain, dose response, counter-screen for streptokinase expression inhibitor project, luminescence, kanamycin, BacTiterGlo, confirmation (AID 1900); assay type: functional, organism-based
[9] = target: T1, Corticotropin-releasing factor receptor 2/Corticotropin-releasing factor-binding protein (Homo sapiens, UniProt P24387+Q13324); test: activators of CRF receptor 2 with binding protein – uHTS hits, confirmation (AID 602473); assay type: functional; conditions: read-out: EC50_Mean
T1 sequence (Q13324 whole entry): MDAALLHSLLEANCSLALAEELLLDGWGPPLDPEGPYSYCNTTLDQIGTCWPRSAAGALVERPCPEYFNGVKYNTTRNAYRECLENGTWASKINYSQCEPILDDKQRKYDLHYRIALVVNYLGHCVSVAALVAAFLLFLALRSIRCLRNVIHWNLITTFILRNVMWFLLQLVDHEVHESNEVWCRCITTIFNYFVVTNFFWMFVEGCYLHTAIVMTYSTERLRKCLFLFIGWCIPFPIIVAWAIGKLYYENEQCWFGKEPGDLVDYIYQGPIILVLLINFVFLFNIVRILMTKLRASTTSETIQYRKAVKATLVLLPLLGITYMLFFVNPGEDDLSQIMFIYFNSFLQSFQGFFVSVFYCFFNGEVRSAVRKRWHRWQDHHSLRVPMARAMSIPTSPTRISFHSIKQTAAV
T1 sequence (P24387 whole entry): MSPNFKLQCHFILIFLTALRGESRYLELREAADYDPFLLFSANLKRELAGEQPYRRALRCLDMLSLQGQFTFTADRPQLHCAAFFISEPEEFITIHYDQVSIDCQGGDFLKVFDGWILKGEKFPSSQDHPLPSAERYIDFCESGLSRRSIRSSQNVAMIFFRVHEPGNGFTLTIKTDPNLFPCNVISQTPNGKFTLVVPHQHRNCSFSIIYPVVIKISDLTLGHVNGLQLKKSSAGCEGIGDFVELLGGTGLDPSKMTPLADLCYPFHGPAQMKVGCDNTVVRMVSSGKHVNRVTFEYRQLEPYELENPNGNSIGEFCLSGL

Streptokinase A = target: T2, Streptokinase A (Streptococcus pyogenes serotype M1, UniProt P10520); test: S. pyogenes streptokinase expression inhibitors, potency, dose response, plasminogen activation absorbance, OD405 (AID 1914); assay type: functional, Streptococcus pyogenes M1 GAS;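 further: secreted streptokinase activity via plasminogen activation per viability signal from cell pellet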
T2 sequence (P10520 whole entry): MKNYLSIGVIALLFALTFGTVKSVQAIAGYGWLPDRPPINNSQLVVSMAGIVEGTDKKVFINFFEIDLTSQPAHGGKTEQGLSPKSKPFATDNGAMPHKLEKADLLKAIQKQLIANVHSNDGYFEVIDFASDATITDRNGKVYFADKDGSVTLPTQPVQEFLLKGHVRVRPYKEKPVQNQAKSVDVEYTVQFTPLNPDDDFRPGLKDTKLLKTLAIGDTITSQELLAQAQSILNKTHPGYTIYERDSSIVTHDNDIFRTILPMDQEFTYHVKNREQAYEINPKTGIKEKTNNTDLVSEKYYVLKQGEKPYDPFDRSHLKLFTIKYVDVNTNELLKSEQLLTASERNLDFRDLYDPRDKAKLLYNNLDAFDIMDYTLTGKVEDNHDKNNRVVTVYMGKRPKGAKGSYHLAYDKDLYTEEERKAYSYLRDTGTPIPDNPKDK

Cysteine protease ATG4B = Cysteine protease ATG4B (Homo sapiens, UniProt Q9Y4P1); assay type: functional;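 further: Fluorescence-based dose-response confirmation assay measuring inhibition of ATG4B activity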
Streptococcus = test: Group A Streptococcus viability loss, dose response, counter-screen for streptokinase expression inhibitor project, luminescence, BacTiterGlo (AID 1915); assay type: functional, organism-based;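 further: potency for reduction of bacterial viability or growth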
[10] = Luminescence Cell-Based Dose Retest to Confirm Inhibitors of Cancer Stem Cells. [Related pubchem assays (depositor defined):AID2717, AID2721]; assay type: functional; conditions: Homo sapiens
Phospholipase A2 = Phospholipase A2 (Homo sapiens, UniProt P04054); assay type: functional;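 further: confirmatory dose-response counterscreen on phospholipase A2, testing hits that came from an ultra-high-throughput screen for ATG4B inhibitors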
[11] = target: DNA dC->dU-editing enzyme APOBEC-3A (Homo sapiens, UniProt P31941); test: SAR analysis of small molecule inhibitors of APOBEC3A DNA Deaminase via a fluorescence-based single-stranded DNA deaminase assay.; assay type: functional; conditions: read-out: IC50_Mean
[12] = target: DNA dC->dU-editing enzyme APOBEC-3G (Homo sapiens, UniProt Q9HC16); test: APOBEC3G deaminase inhibitors, SAR follow-up, biochemical, fluorescence, single-stranded DNA substrate (AID 602136); assay type: functional; conditions: read-out: IC50_Mean
Caspase-3 [13] = target: T3, Caspase-3 (Homo sapiens, UniProt P42574); test: SAR Analysis of small molecule inhibitors of Sentrin-specific proteases (SENPs) using a Caspase-3 Selectivity assay. [Related pubchem assays (depositor defined):AID2540, AID2599, AID434973, AID489001]; assay type: functional
T3 sequence (P42574 whole entry): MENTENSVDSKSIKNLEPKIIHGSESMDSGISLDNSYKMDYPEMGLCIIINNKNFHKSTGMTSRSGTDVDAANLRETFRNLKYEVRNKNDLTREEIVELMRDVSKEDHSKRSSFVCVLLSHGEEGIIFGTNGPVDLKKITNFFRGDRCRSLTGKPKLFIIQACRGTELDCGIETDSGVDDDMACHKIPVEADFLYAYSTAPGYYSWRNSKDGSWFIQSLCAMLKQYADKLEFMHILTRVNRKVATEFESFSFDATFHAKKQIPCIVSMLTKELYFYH

[14] = target: T4, Sentrin-specific protease 8 (Homo sapiens, UniProt Q96LD8); test: SENP8 protease inhibitors, SAR follow-up, biochemical, luminescence (AID 504501); assay type: functional
T4 sequence (Q96LD8 whole entry): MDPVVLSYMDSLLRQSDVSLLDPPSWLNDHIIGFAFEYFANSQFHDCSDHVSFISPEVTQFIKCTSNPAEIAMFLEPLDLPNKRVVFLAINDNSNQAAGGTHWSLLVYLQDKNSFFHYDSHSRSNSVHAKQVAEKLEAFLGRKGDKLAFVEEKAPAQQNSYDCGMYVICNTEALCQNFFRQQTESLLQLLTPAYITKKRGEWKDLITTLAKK

Caspase-3 [15] = target: T3, Caspase-3; test: caspase-3 inhibitors as off-family protease, SAR follow-up, selectivity assay for SENP protease inhibitor project, biochemical, luminescence, set 2 (AID 588599); assay type: functional
[16] = target: T5, Sentrin-specific protease 6 (Homo sapiens, UniProt Q9GZR1); test: SAR Analysis of small molecule inhibitors of Sentrin-specific protease 6 (SENP6) using a Luminescent assay. [Related pubchem assays (depositor defined):AID2582, AID2599]; assay type: functional
T5 sequence (Q9GZR1 whole entry): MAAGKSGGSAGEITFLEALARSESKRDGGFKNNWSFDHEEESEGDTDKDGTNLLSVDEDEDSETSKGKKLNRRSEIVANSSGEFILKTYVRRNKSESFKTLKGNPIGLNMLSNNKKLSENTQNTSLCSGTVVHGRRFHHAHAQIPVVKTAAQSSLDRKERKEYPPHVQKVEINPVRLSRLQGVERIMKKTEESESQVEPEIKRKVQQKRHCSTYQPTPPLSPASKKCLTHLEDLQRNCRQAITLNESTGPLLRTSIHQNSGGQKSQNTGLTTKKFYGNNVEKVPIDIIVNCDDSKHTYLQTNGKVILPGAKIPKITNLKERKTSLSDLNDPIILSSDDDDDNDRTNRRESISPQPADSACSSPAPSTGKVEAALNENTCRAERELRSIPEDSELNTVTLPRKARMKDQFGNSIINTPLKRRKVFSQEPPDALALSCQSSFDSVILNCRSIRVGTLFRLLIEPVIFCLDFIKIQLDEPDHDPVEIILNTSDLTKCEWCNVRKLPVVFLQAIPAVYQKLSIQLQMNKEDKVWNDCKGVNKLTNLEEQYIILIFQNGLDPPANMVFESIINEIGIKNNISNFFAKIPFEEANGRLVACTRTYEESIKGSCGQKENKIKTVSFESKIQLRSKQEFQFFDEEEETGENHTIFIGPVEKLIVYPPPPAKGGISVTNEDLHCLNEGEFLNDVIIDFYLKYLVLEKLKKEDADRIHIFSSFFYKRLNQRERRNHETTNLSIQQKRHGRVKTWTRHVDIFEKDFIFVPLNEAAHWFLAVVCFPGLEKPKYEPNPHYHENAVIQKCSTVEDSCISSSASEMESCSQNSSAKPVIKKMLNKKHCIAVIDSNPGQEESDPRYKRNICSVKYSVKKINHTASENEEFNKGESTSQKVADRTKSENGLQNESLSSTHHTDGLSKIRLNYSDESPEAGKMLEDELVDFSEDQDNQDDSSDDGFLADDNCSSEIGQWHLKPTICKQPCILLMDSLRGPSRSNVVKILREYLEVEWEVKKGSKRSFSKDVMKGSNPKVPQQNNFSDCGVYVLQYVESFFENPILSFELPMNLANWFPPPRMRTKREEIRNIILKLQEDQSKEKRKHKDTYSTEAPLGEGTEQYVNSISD

[17] = target: T4, Sentrin-specific protease 8; test: SENP8 protease inhibitors, SAR follow-up, biochemical, luminescence, set 2 (AID 588601); assay type: functional
[18] = target: T5, Sentrin-specific protease 6; test: SENP6 protease inhibitors, SAR follow-up, biochemical, luminescence, set 2 (AID 588598); assay type: functional
[19] = target: T6, Sentrin-specific protease 7 (Homo sapiens, UniProt Q9BQF6); test: SENP7 protease inhibitors, SAR follow-up, biochemical, luminescence (AID 504497); assay type: functional
T6 sequence (Q9BQF6 whole entry): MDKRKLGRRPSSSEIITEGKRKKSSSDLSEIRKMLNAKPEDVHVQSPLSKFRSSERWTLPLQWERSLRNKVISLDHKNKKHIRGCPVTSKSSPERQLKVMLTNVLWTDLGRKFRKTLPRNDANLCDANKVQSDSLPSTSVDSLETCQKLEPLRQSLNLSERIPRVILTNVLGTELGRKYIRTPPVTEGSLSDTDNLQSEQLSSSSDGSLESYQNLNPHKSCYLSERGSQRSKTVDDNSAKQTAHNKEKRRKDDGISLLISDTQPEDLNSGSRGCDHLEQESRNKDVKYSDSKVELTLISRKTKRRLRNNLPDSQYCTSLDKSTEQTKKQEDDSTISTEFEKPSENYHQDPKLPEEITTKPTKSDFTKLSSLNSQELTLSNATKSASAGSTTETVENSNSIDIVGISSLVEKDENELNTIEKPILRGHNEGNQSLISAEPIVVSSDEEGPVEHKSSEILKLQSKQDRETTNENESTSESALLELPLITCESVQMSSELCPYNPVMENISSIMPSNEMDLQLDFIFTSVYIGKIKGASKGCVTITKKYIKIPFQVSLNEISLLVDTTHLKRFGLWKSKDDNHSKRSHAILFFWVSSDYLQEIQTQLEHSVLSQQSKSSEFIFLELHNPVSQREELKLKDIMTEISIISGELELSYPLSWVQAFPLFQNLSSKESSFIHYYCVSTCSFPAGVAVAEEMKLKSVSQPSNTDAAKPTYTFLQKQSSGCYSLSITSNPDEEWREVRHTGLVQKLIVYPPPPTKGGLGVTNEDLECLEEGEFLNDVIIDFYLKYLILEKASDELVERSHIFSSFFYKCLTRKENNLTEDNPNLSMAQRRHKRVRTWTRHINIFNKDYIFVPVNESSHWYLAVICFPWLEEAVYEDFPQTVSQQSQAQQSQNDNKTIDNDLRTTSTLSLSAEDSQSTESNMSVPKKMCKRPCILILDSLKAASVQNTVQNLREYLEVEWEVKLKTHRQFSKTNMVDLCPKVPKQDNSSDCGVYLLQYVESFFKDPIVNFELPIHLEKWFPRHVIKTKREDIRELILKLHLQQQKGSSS

[20] = target: T6, Sentrin-specific protease 7; test: SENP7 protease inhibitors, SAR follow-up, biochemical, luminescence, set 2 (AID 588600); assay type: functional

Sequence of Cysteine protease ATG4B (Q9Y4P1 whole entry): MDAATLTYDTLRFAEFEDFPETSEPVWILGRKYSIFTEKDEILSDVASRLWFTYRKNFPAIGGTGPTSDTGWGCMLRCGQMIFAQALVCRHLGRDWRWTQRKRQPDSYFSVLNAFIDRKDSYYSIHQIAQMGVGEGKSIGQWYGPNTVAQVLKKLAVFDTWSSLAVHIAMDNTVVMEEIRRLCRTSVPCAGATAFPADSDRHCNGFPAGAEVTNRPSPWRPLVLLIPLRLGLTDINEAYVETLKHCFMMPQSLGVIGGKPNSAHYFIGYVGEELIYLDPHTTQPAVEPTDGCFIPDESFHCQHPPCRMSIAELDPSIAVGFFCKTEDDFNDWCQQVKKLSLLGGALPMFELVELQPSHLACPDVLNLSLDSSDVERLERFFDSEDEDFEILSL
Sequence of DNA dC->dU-editing enzyme APOBEC-3A (P31941 whole entry): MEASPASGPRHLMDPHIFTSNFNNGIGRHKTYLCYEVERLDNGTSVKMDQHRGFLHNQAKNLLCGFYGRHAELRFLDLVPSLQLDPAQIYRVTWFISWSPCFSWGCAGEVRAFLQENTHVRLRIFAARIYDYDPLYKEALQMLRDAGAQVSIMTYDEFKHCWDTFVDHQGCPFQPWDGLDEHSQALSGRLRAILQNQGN
Sequence of DNA dC->dU-editing enzyme APOBEC-3G (Q9HC16 whole entry): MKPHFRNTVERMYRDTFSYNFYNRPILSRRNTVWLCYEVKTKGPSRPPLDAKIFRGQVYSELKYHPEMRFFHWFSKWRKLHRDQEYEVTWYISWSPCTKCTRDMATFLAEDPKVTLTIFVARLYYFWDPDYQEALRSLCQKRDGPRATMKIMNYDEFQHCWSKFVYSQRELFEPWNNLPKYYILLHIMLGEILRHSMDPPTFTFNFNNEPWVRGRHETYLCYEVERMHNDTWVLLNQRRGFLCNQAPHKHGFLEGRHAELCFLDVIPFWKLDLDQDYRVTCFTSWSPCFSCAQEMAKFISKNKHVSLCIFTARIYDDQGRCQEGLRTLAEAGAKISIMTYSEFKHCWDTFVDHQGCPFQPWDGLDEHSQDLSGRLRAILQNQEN
Sequence of Phospholipase A2 (P04054 whole entry): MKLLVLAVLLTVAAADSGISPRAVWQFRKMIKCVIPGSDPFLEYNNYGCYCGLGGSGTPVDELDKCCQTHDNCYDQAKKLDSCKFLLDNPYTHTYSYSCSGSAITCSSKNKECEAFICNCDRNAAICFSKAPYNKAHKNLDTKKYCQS

SMILES: Cc1[nH]c(SCC(=O)N(C)c2ccccc2)nc(=O)c1C
- CC50 [1]: > 100 µM (active)
- CC50 [2]: > 100 µM (active)
- CC50 [3]: > 100 µM (active)

SMILES: O=C(c1ccc(Cl)c(Cl)c1)N1CCN(c2ccnc3cc(Cl)ccc23)CC1
- AC50 (Candida albicans [4]): 0.515 µM (active)
- AC50 (Candida albicans [5]): 1.14 µM (active)
- AC50 (NIH3T3): 43.6 µM (active)
- AC50 (Candida albicans [6]): 0.726 µM (active)
- AC50 (Candida albicans [7]): 45.2 µM (active)

SMILES: Cc1cc(C)cc(-n2c(C)cc(/C=C3\C(=N)N4N=C(CC(C)C)SC4=NC3=O)c2C)c1
- EC50 [8]: 4.57 µM (active)
- EC50 [9]: 6.77 µM (active)
- EC50 (Streptokinase A): > 50 µM (not active)
- IC50 (Cysteine protease ATG4B): 3.65 µM (active)
- EC50 (Streptococcus): 9.46 µM (active)
- AC50 [10]: 2.82 µM (active)
- IC50 (Phospholipase A2): 2.3 µM (active)

SMILES: O=C(CSc1nnc2scc(-c3ccc(Cl)cc3)n12)N1CCOCC1
- IC50 [11]: > 99 µM (inactive)
- IC50 [12]: 28 µM (inactive)

SMILES: Oc1ccccc1-c1nc(/C=C/c2ccccc2)no1
- IC50 (Caspase-3 [13]): 6.9 µM (active)
- IC50 [14]: 71 µM (active)
- IC50 (Caspase-3 [15]): 3.6 µM (active)
- IC50 [16]: 8.4 µM (active)
- IC50 [17]: 2.54 µM (active)
- IC50 [18]: 2.12 µM (active)
- IC50 [19]: 2.8 µM (active)
- IC50 [20]: 2.71 µM (active)
